For data set [1], the system named is colony forming leukemia progenitors. The experiment in a line: Acute myeloid leukemia colony forming unit (AML-CFU) assay. Type of data set: cell-based, human. As for the experimental part: For the AML-colony forming unit (CFU) assay, 0.9% methylcellulose semi-solid culture was used, containing 15% fetal calf serum (FCS), 15% pretested human plasma, 50 μM β mercaptoethanol, and cytokines at concentrations of 100 ng/mL stem cell factor, 100 ng/mL Flt-3 ligand, 20 ng/mL IL-6, 20 ng/mL GM-CSF, 20 ng/mL IL-3, and 3 U/mL of erythropoietin (Amgen, USA).
Cell Culture: Acute myeloid leukemia cells were plated in 0.9% methylcellulose containing 15% FCS, 15% pretested human plasma, 50 μM β-mercaptoethanol, and cytokines at concentrations of 100 ng/mL stem cell factor, 100 ng/mL Flt-3 ligand, 20 ng/mL IL-6, 20 ng/mL GM-CSF, 20 ng/mL IL-3 and 3 U/mL of erythropoietin (Amgen, USA). Acute myeloid leukemia cells were cultured with DMSO or Compound D (prepared as described below) during suspension and CFU assays.
Assay Procedure: After the AML cultures were incubated with DMSO or Compound D for 12 to 14 days at 37° C., plates were assigned scores for the presence of AML-CFU (CFU defined as >50 cells).
Colony assays were performed in semisolid culture supplemented with growth factors, in the presence of Compound D, or DMSO for control. Colonies were counted at Day 14.

A short description of data set [2]: Tolerability and body weight of AML xenograft mice. The data set is classed as in vivo, NOD/SCID mice. The protocol:
Treatment and Assay Procedure: At Day 21 post AML transplantation, mice were randomly grouped and dosed with either Compound D at 2.5 mg/kg or vehicle (5% N-methyl-2-pyrrolidone [NMP]/45% polyethylene glycol [PEG] 400/50% saline), intraperitoneally twice daily in a dose volume of 50 μL for 4 weeks. All animals were euthanized at scheduled termination (1 day after the last treatment) and bone marrow was collected from the right femur (injected bone marrow) and the left femur and left and right tibia (non-injected bone marrow). Cells isolated from injected or non-injected bone marrow were analyzed by flow cytometry to assess AML engraftment, and were viably frozen for future secondary engraftment analysis.
Based on the pilot data (FIG. 4) in which one of the 2 samples responded to Compound D dosing at 2.5 mg/kg BID for 2 weeks, the duration of dosing was extended to 4 weeks to determine if the mice could tolerate longer Compound D dosing. Mice transplanted with 3 different AML samples were closely monitored for clinical conditions during treatment.

Data set [3] concerns leukemic stem cells (LSCs). The experiment in a line: Secondary transplantation without limiting dilution. The data set is classed as in vivo, NOD/SCID mice. As for the experimental part: For secondary transplant NOD/SCID mice were sublethally irradiated (275 cGy) and pretreated with anti-CD122 antibody (200 μg/mouse) to deplete residual host natural killer cells. On the day of transplantation, viably frozen cells harvested from the vehicle- or Compound D-treated primary mice were thawed, counted, mouse-cell depleted (Mouse Cell Depletion Kit, Miltenyi Biotec, USA), and transplanted intrafemorally into the pretreated secondary mice at limiting doses described above. For secondary transplant without LDA, thawed cells were not depleted of mouse cells before transplantation. At 12 weeks post secondary transplantation, mice were euthanized, and bone marrow was collected and analyzed.
To determine if quiescent LSCs are resistant to Compound D, secondary transplantation of AML cells of high responders was performed. High responders were identified as samples in which leukemia cells were almost undetectable in the primary mouse bone marrow following Compound D treatment. If rare quiescent LSCs are maintained in the residual leukemia cells following Compound D dosing, then those quiescent LSCs may become active and repopulate secondary mice after undergoing serial transplantations. Four LSC17 high samples that had AML blasts eradicated by Compound D treatment were selected for secondary transplantation (see Table 9) by injecting total combined bone marrow cells collected from 5 primary mice treated with either vehicle or Compound D into 5 secondary mice. In this way cells collected from one primary mouse were injected into one secondary mouse without any cell dose dilution or losing any residual cells. […] Cells from AML Patient 150238 harvested from vehicle-treated primary mice repopulated only one of 5 secondary mice.

Each structure is given as a SMILES string. Values joined by “and” are separate entries in the source; they are usually repeats but may differ in a detail not shown here. Equal values may be shown once. “Also recorded” adds a separate entry of the source.

Turning to `O=C1CCC(N2Cc3cc(CNC(=O)C(F)(F)c4ccc(Cl)cc4)ccc3C2=O)C(=O)N1` (centres unmarked) [Compound D, 2-(4-chlorophenyl)-N-((2-(2,6-dioxopiperidin-3-yl)-1-oxoisoindolin-5-yl)methyl)-2,2-difluoroacetamide], the “colony formation, high vs low LSC17 score samples” value in data set [1] (3 high and 3 low LSC17 samples) was “reduced colony formation of the samples with high LSC17 scores more than the samples with low LSC17 samples”. Further, the colony formation entry in data set [1] (7 samples that formed colonies, increasing concentration) is “all 7 samples had reduced colony formation”. Moreover, the “colony forming leukemia progenitors” value in data set [1] (Section 6.3 samples) is “inhibited colony forming leukemia progenitors”. The tolerability entry in data set [2] (4 weeks of treatment, mice with different primary AML samples) is “well tolerated”. In addition, in data set [2] (group mean), the “Body weight, Week 1, average (mean)” value is listed as “Avg = 21.8”. For the same molecule, the “Body weight, Week 2, average (mean)” value in data set [2] (group mean) is reported as “Avg = 21.7”. Besides, the “Body weight, Week 3, average (mean)” value in data set [2] (group mean) is given as “Avg = 21.6”. Besides, the “Body weight, Week 1” value in data set [2] (individual mice) is 21 g (5×) and 23 g (2×) and 20 g (2×) and 22 g (4×) and 24 g (2×). In addition, in data set [2] (individual mice), the “Body weight, Week 2” value was 22 g (3×) and 20 g (3×) and 24 g (2×) and 23 g (3×) and 19 g and 21 g (3×). Moreover, the “Body weight, Week 3” value in data set [2] (individual mice) was 23 g and 21 g (4×) and 19 g and 22 g (5×) and 24 g (2×) and 20 g (2×). Besides, the paralysis / death result in data set [2] (mouse transplanted with Patient Sample 120860, last day of 4-week treatment) is listed as “Only one Compound D-treated mouse was found paralyzed”. Besides, the “repopulation of secondary mice” value in data set [3] (AML 0590 and AML 110102, cells from Compound D-treated primary mice) is recorded as “did not repopulate the secondary mice”. The “LSC Status in Secondary Mice Injected with Compound D Treated Primary Cells” value in data set [3] (Patient 110625) was “repopulated the bone marrow of one secondary mouse; also recorded: LSC in BM”; in data set [3] (Patient 130311), “did not proliferate/repopulate any of the secondary mice; also recorded: not engrafted”; in data set [3] (Patient 130826), “did not proliferate/repopulate any of the secondary mice; also recorded: not engrafted”; in data set [3] (Patient 150238) it was “did not repopulate any secondary mice; also recorded: no LSC”. For the same molecule, the “No. mice with LSC engrafted/No. injected mice in the group” value in data set [3] (Patient 110625, cells from Compound D-treated primary mice) is on record as 1/5 (in BM; in data set [3] (Patient 130311, cells from Compound D-treated primary mice), 0/4; in data set [3] (Patient 130826, cells from Compound D-treated primary mice), 0/5; in data set [3] (Patient 150238, cells from Compound D-treated primary mice), 0/5.

(Values after patent US20220378773A1, “METHODS FOR TREATING LEUKEMIA AND USE OF A LEUKEMIC STEM CELL SIGNATURE TO PREDICT CLINICAL SENSITIVITY TO THERAPIES” (CELGENE CORPORATION, priority 2019, published 2022).)
